3 molecules from PMC9692247 (Pharmaceuticals, 2022) can be followed below.

For one data set, the target named is HDAC6 (Homo sapiens, UniProt Q9UBN7). The experiment in a line: Intracellular target engagement residence time assay (NanoBRET) in HeLa cells. Format: cell-based. To be noted: HeLa cells transiently expressing HDAC6-NanoLuc full-length fusion protein. A general note: Bioluminescence resonance energy transfer reports proximity on the nanometre scale.
The target in data set [1] is T1, recombinant zfHDAC6 (HDAC6 CD2) (Danio rerio, UniProt F8W4B7).
T1 construct: HDAC6 from Danio rerio (zebrafish; catalytic domain 2, S440-R798); His-SUMO (N, cleaved yes); made in house; host or cells: E. coli BL21 (DE3) RILP
T1 sequence (F8W4B7 440-798): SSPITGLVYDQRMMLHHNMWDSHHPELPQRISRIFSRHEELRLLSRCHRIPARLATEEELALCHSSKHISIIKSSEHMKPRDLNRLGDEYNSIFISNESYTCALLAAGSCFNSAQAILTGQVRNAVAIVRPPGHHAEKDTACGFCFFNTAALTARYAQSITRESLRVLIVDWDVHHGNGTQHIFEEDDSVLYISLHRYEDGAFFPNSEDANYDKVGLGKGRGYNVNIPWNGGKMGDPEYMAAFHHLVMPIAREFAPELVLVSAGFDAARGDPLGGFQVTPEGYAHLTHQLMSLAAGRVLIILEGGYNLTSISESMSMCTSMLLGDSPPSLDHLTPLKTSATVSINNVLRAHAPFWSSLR
The experiment in a line: Fluorescence polarization (FP) competition assay with FITC-M344. It counts as binding, Danio rerio (zebrafish). To be noted: for IC50: 300 nM HDAC6 CD2, 50 nM FITC-M344, read-out: Fluorescence polarization IC50 against zfHDAC6. The method, then:
The FP assay was conducted in a Greiner Bio-one black 384-well, nonbinding microplate (Cat 781900) as previous described. These studies were performed in FP buffer (20 mM HEPES pH 8.0, 137 mM NaCl, 3 mM KCl, 1 mM TCEP, 5% DMSO). Binding experiments were performed in the presence of 50 nM FITC-M344 synthesized as described by Mazitschek et al. and titrated with 0–3 µM HDAC6. Competition assays were performed by titrating 0–100 µM inhibitor to 300 nM HDAC6 CD2 and preincubating the samples for 10 min prior to addition of 50 nM FITC-M344 in FP buffer. The assay mixture was incubated for an additional 10 min before FP measurement. Polarization measurements were collected using Infinite M1000-Tecan (ex/em = 470 nm/530 nm) and data were plotted and fitted using Prism GraphPad 6 built-in function, log(inhibitor) vs. response—variable slope (four parameters).

The nature of data set [2]: In vivo brain PK analysis in male CD-1 mice. To be noted: IP, 50 mg/kg, n = 3. The procedure: (§1) In vivo mouse studies were performed at Pharmaron in CD-1 male mice in triplicate. The test compounds were formulated within a 4 mg/mL solution (10% DMA, 65% PEG400, 25% saline). CD-1 mice were administered the test compound (50 mg/kg, I.P) once, and blood samples were obtained from each mouse at 0.25, 0.5, 1, 2, 4, 8, and 24 h post-dose. The mice had free access to food and water, were inspected for clinical signs and were weighted once prior to dosing. The working solutions of 5 μL at different concentrations (2, 4, 10, 20, 100, 200, 1000, 2000 ng/mL) were added to CD-1 mouse plasma (10 μL) to generate calibration standards of 1, 2, 5, 10, 50, 100, 500, and 1000 ng/mL. Four quality control (QC) samples at 2, 5, 50, and 800 ng/mL for plasma were prepared independently of calibration curves. Standards, QC samples, and unknown samples (total volume 15 µL) were added to acetonitrile (200 μL) containing IS (2 ng/mL Verapamil, and 50 ng/mL Dexamethasone) for precipitation of protein. Samples were vortexed and centrifuged (4 °C, 3900 rpm, 15 min), and the supernatant was diluted 3× with ultra-pure water. Diluted supernatant was injected into the LC-MS/MS system for quantitative analysis.

The subject of data set [3] is DERL-2 cells. The experiment in a line: Cytotoxicity assay (Cell Titer-Blue, 72 h). It counts as cell-based. Conditions: Homo sapiens, one representative of three experiments. The procedure: (§2) KHYG-1, SNK6, MTA, YT, DERL-2, DERL-7, Mac2a, SU-DHL-1, Myla, Hut78, SeAx, HH, MOTN-1, KOPT-K1, Jurkat, and Loucy cells were plated in 96-well flat-bottom sterile culture plates with low-evaporation lids (Costar #3997). The inhibitors and a vehicle control (0.5% DMSO) were added to the cells following 24 h. After 72 h, Cell Titer-Blue® (Promega #G808A) was added to each well (20 μL), and the fluorescence was measured at 560/590 nm using a Cytation S63 spectrophotometer (BioTek) or on the GloMax® Discover Microplate Reader (Promega, Madison, WI, USA). IC50 values were determined using non-linear regression analysis with GraphPad Prism 6.0 (GraphPad Software Inc., San Diego, CA, USA).

A further data set relates to SeAx cells. The experiment in a line: Cytotoxicity assay (Cell Titer-Blue, 72 h). Conditions: Homo sapiens, one representative of three experiments. It counts as cell-based. The method, then:
as §2
(In general: Alamar Blue is a resazurin reagent that responds to reducing activity.)

In a further data set the test system is SU-DHL-1 cells. The experiment in a line: Cytotoxicity assay (Cell Titer-Blue, 72 h). It counts as cell-based. Conditions: Homo sapiens, one representative of three experiments. The procedure: as §2
The next data set concerns MTA cells. The experiment in a line: Cytotoxicity assay (Cell Titer-Blue, 72 h). Format: cell-based. To be noted: Homo sapiens, one representative of three experiments. The method, then: as §2
For the next data set, the system named is Myla cells. The experiment in a line: Cytotoxicity assay (Cell Titer-Blue, 72 h). Format: cell-based. To be noted: Homo sapiens, one representative of three experiments. The method, then: as §2
The test system of a further data set is YT cells. The experiment in a line: Cytotoxicity assay (Cell Titer-Blue, 72 h). Format: cell-based. To be noted: Homo sapiens, one representative of three experiments. The method, then:
as §2

Another data set relates to KHYG-1 cells. The experiment in a line: Cytotoxicity assay (Cell Titer-Blue, 72 h). To be noted: Homo sapiens, one representative of three experiments, ANKL to T-ALL panel. It counts as cell-based. The procedure: as §2
For another data set, the system named is Loucy cells. The experiment in a line: Cytotoxicity assay (Cell Titer-Blue, 72 h). It counts as cell-based. To be noted: Homo sapiens, one representative of three experiments. The method, then:
as §2

The test system of the next data set is Hut78 cells. The experiment in a line: Cytotoxicity assay (Cell Titer-Blue, 72 h). Format: cell-based. Conditions: Homo sapiens, one representative of three experiments. The method, then: as §2
The subject of another data set is KOPT-K1 cells. The experiment in a line: Cytotoxicity assay (Cell Titer-Blue, 72 h). It counts as cell-based. To be noted: Homo sapiens, KOPTK1, one representative of three experiments. The procedure: as §2
The test system of a further data set is Jurkat cells. The experiment in a line: Cytotoxicity assay (Cell Titer-Blue, 72 h). Format: cell-based. Conditions: Homo sapiens, one representative of three experiments. The method, then: as §2
For a further data set, the system named is DERL-7 cells. The experiment in a line: Cytotoxicity assay (Cell Titer-Blue, 72 h). It counts as cell-based. To be noted: Homo sapiens, DERL7, one representative of three experiments. The method, then: as §2
For a further data set, the system named is SNK6 cells. The experiment in a line: Cytotoxicity assay (Cell Titer-Blue, 72 h). Format: cell-based. Conditions: Homo sapiens, one representative of three experiments. The procedure: as §2
A further data set deals with Mac2a cells. The experiment in a line: Cytotoxicity assay (Cell Titer-Blue, 72 h). It counts as cell-based. To be noted: Homo sapiens, one representative of three experiments. The method, then: as §2
Another data set has as its system MOTN-1 cells. The experiment in a line: Cytotoxicity assay (Cell Titer-Blue, 72 h). Format: cell-based. Conditions: Homo sapiens, one representative of three experiments. The method, then:
as §2

The subject of another data set is HH cells. The experiment in a line: Cytotoxicity assay (Cell Titer-Blue, 72 h). Conditions: Homo sapiens, one representative of three experiments. It counts as cell-based. The method, then:
as §2

Data set [4] has as its system DERL-2 cells. The experiment in a line: FACS apoptosis detection assay (annexin V/PI). Format: cell-based, human. Conditions: DERL-2, 18 h treatment. The procedure: DERL-2 cells were seeded, dosed with inhibitors, incubated for 18 h, and washed with ice cold 1× PBS. The resulting cell pellets were resuspended in 1× Binding Buffer (1 × 10^6 cell/mL) from the FITC Annexin V Apoptosis Detection Kit I (BD Pharmingen). Subsequently, the dyes Annexin V (5 μL) and Propidium Iodide (PI, 5 μL) were added to 2.5 × 10^5 cells (250 μL). The suspension was thoroughly mixed and incubated in the dark for 15 min. Following the addition of 250 μL of 1× binding buffer the cells were analyzed by flow cytometry within 1 h using Cytoflex S (Beckman Coulter, Brea, CA, USA).

Data set [5] in a line: In vivo PK study in CD-1 male mice (plasma). Details: species or system CD-1 mice. The procedure:
as §1

Data set [6] deals with acetylation of α-tubulin and histone H3 in acute myeloid leukemia (MV4-11) cells. The experiment in a line: In cellulo target engagement by Western blotting. It counts as cell-based. To be noted: 6 h treatment, Western blot. The method, then:
(§3) Cells (MV4-11 AML, MM.1S multiple myeloma, or YT cells) were incubated with inhibitors prior to washes (2×) with cold phosphate-buffered saline (PBS) and cell lysis with radioimmunoprecipitation assay (RIPA) buffer (20 mM Tris pH 7.4, 150 mM NaCl, 0.5% deoxycholate, 1% Triton X-100, and 0.1% sodium dodecyl sulfate (SDS)). Total protein content was determined through a bicinchoninic acid (BCA) assay (ThermoFisher Scientific, Waltham, MA, USA). The cell lysate proteins were separated via a 4–20% polyacrylamide SDS gel and transferred to a PVDF membrane (Bio-Rad, Hercules, CA, USA). Non-specific binding of the antibody to the membrane was reduced by blocking the membranes with a 5% (w/v) solution of Bovine Serum Albumin powder in TBS-T. This was followed by incubation at 4 °C (overnight) with the following antibodies: acetylated α-tubulin mouse monoclonal (sc-23950, Santa Cruz, Santa Cruz, CA, USA), acetylated Histone H3 (Ac-Lys18, 07-354, Sigma), β-Actin mouse monoclonal (AC-15, sc-69879, Santa Cruz), and […] HSC70 (sc-7298, Santa Cruz). Following overnight incubation, horseradish peroxidase (HRP)-conjugated goat anti-mouse IgG secondary antibody (7076, Cell Signaling) or HRP-linked anti-rabbit IgG secondary antibody (7074, Cell Signaling) was applied to the membrane in a 1:5000 dilution for 1 h. The bands were visualized using clarity Western ECL substrate luminal/enhancer solution and peroxide solution. Western blotting analysis was carried out using Image lab software (Bio-Rad).
(In western blotting, separated proteins are transferred to a membrane and probed.)

Data set [7] relates to acetylation of α-tubulin and histone H3 in multiple myeloma (MM.1S) cells. The experiment in a line: In cellulo target engagement by Western blotting. To be noted: 6 h treatment, Western blot. Format: cell-based. The method, then: as §3
Data set [8] is described as follows: Plasma stability evaluation. Format: in vitro ADME. Conditions: read-out: T1/2 in plasma.
[9] abbreviates: mouse, plasma, male CD-1 mice, IP, 50 mg/kg, n = 3.

On to `CC(C)N(Cc1ccc(C(=O)NO)cc1)S(=O)(=O)c1cc(F)c(F)c(F)c1F` [NN-390], for which the “Intracellular residence time in HDAC6” value at HDAC6 came to 97 min.

Regarding `O=C(CCCCCCNC(=O)c1cnc(N(c2ccccc2)c2ccccc2Cl)nc1)NO` [Citarinostat, citarinostat], in data set [1], the IC50 was determined as 0.0902 µM. Besides, in [1] (FP IC50 vs NN-429), the “Binding affinity lower than NN-429 (FP)” value is 3 fold.

For the molecule `CC(C)N(Cc1ccc(C(=O)NO)cc1F)S(=O)(=O)c1cc(F)c(F)c(F)c1F` [NN-429], the “Levels in the brain” value in data set [2] is reported as “no observable levels”. In addition, the IC50 in the data set on DERL-2 cells [3] is 2.32 µM; with SeAx cells, 12.4 µM; in the data set with SU-DHL-1 cells it was 4.72 µM; in the data set on MTA cells, 0.72 µM; with Myla cells, more than 50 µM; in the data set with YT cells, 1.29 µM. For the same molecule, the IC50 in the data set with KHYG-1 cells was 7.25 µM; in the data set with Loucy cells, 3.6 µM; in the data set on Hut78 cells, 16.7 µM; with KOPT-K1 cells it was 6.16 µM; in the data set with Jurkat cells, 5.46 µM; in the data set with DERL-7 cells, 2.21 µM. Moreover, the IC50 came to 12 µM in the data set with SNK6 cells; 15.1 µM with Mac2a cells; 2.75 µM with MOTN-1 cells; 2.95 µM with HH cells; 0.0288 µM in data set [1]. In addition, the “Cells undergoing early-stage apoptosis (annexin V+/PI−)” value in the data set on DERL-2 cells [4] (0.1 μM) came out at 15%; with DERL-2 cells [4] (5 μM), 56%. In addition, the “in vivo t1/2 longer than that of KT-531” value in [5] (CD-1 mice, KT-531 at a lower dose) is more than 3.5 fold. In data set [5] (CD-1 mice, NN-390 at a lower dose), the “in vivo t1/2 longer than that of NN-390” value is listed as ~ 1.8 fold. Further, the AUC(0-inf) in data set [5] (setting [9]) turned out to be 9920 ng·h/mL. Further, the AUC(0-t) in data set [5] (setting [9]) stood at 9860 ng·h/mL. Moreover, the Cmax in data set [5] (setting [9]) worked out at 3190 ng/mL. In addition, the half-life in data set [5] (setting [9]) is 3.53 h; in [8] it was 1.55 h. For the same molecule, the “Target engagement (α-tubulin vs histone H3 acetylation)” value in [6] is given as “strong target engagement with minimal acetylation of off-target histone H3”. Also, the “Concentration with visible off-target interaction (histone H3 acetylation)” value in data set [7] was 5 µM. Further, the “Lowest concentration with dose-dependent increase in acetylation of α-tubulin” value in [7] was 0.1 µM.

As a reminder, the IC50 is the midpoint of a concentration-inhibition curve. A word on the AUC(0-inf): it is total exposure, with the tail of the curve extrapolated. Lower therefore signals less exposure. Broadly, the AUC(0-t) is the area under the concentration-time curve up to a stated or last time point. Lower therefore signals less exposure. A word on the Cmax: it is the highest concentration seen after dosing.
